From PubChem BioAssay AID248 (DTP/NCI, 2004)
Several values for one entry are separate records, joined by “and”; a condition that tells them apart may be missing. Equal entries are not always repeated. Inconclusive results and toxic doses are left out.

Test system: L1210 leukemia ip in BDF1 mice, survival T/C
Experiment: NCI In Vivo Anticancer Drug Screen. Data for tumor model L1210 Leukemia (intraperitoneal) in B6D2F1 (BDF1) mice
Conditions: endpoint: mean survival time, higher = longer survival
Description: The antitumor activity of compounds was measured in mice bearing transplantable tumors. Survival or tumor size were measured and the results are expressed as the measurement made in the treated group (T) divided by the measurement made in the vehicle treated control group (C). The tumor model used in this assay is L1210 Leukemia (intraperitoneal) in B6D2F1 (BDF1) mice

[1] = dose: 200.0 mg/kg/injection, schedule: Q01DX009 (ip), vehicle: saline
[2] = dose: 100.0 mg/kg/injection, schedule: Q01DX009 (ip), vehicle: Klucel (hydroxypropylcellulose) (HPC)
[3] = dose: 200.0 mg/kg/injection, schedule: Q01DX009 (ip), vehicle: Klucel (hydroxypropylcellulose) (HPC)
[4] = dose: 400.0 mg/kg/injection, schedule: Q01DX009 (ip), vehicle: Klucel (hydroxypropylcellulose) (HPC)
[5] = dose: 100.0 mg/kg/injection, schedule: Q01DX009 (ip), vehicle: saline with Tween-80
[6] = dose: 200.0 mg/kg/injection, schedule: Q01DX009 (ip), vehicle: saline with Tween-80
[7] = dose: 100.0 mg/kg/injection, schedule: Q01DX001 (ip), vehicle: saline
[8] = dose: 200.0 mg/kg/injection, schedule: Q01DX001 (ip), vehicle: saline
[9] = dose: 400.0 mg/kg/injection, schedule: Q01DX001 (ip), vehicle: saline
[10] = dose: 75.0 mg/kg/injection, schedule: Q01DX001 (ip), vehicle: saline

Question: What does the source list for `CCc1ccccc1NC(=O)N1CCN(C)CC1`?
Answer: T/C (dose: 100.0 mg/kg/injection, schedule: Q01DX009 (ip), vehicle: saline): 104 % of control; T/C [1]: 92 % of control

Question: `CN(C)C(=O)c1ccccc1Cl` was tested. Which T/C (dose: 100.0 mg/kg/injection, schedule: Q04DX003 (ip), vehicle: acetone) did it give?
Answer: 92 % of control

Question: What about the T/C (dose: 200.0 mg/kg/injection, schedule: Q04DX003 (ip), vehicle: acetone) of the same compound?
Answer: 94 % of control

Question: And the T/C (dose: 400.0 mg/kg/injection, schedule: Q04DX003 (ip), vehicle: acetone)?
Answer: 105 % of control

Question: For `Cc1cc(C)c(NC(=O)Nc2ccc(C(Cl)(Cl)Cl)cc2)c(C)c1`, which T/C [2] is on record?
Answer: 95 % of control

Question: What about the T/C [3] of the same compound?
Answer: 98 % of control

Question: And the T/C [4]?
Answer: 94 % of control

Question: Which results are given for `CC(C)CCCC(C)C1CCC2C3CC(=O)C45CC4CCC5(C)C3CCC12C` (centres undefined)?
Answer: T/C (dose: 100.0 mg/kg/injection, schedule: Q04DX003 (ip), vehicle: other): 97 % of control; T/C (dose: 200.0 mg/kg/injection, schedule: Q04DX003 (ip), vehicle: other): 102 % of control; T/C (dose: 400.0 mg/kg/injection, schedule: Q04DX003 (ip), vehicle: other): 108 % of control

Question: With `CN(C)c1ccc(/C=C2\C=Cc3ccccc32)cc1F` as the compound, how does the T/C (dose: 100.0 mg/kg/injection, schedule: Q01DX001 (ip), vehicle: carboxymethylcellulose (CMC)) read?
Answer: 92 % of control

Question: What about the T/C [5] of the same compound?
Answer: 100 % of control

Question: What about the T/C (dose: 200.0 mg/kg/injection, schedule: Q01DX001 (ip), vehicle: carboxymethylcellulose (CMC)) of the same compound?
Answer: 95 % of control

Question: And the T/C [6]?
Answer: 94 % of control

Question: And the T/C (dose: 400.0 mg/kg/injection, schedule: Q01DX001 (ip), vehicle: carboxymethylcellulose (CMC))?
Answer: 97 % of control

Question: And the T/C (dose: 400.0 mg/kg/injection, schedule: Q01DX009 (ip), vehicle: saline with Tween-80)?
Answer: 98 % of control

Question: With `O=C(Nc1ccc(Nc2ccccc2)cc1)Nc1cc(C(F)(F)F)ccc1Cl` as the compound, how does the T/C [2] read?
Answer: 103 % of control

Question: What about the T/C [3] of the same compound?
Answer: 93 % of control

Question: What about the T/C [4] of the same compound?
Answer: 87 % of control

Question: Which T/C [2] does the source give for `OC(CN1CCOCC1)c1ccccc1` (centres undefined) here?
Answer: 94 % of control

Question: And the T/C (dose: 100.0 mg/kg/injection, schedule: Q04DX003 (ip), vehicle: Klucel (hydroxypropylcellulose) (HPC))?
Answer: 98 % of control

Question: And the T/C [3]?
Answer: 95 % of control

Question: What about the T/C (dose: 200.0 mg/kg/injection, schedule: Q04DX003 (ip), vehicle: Klucel (hydroxypropylcellulose) (HPC)) of the same compound?
Answer: 102 % of control

Question: What does the source list for `Cc1cc(Cl)ccc1OCC(=O)Oc1c(Cl)c(Cl)c(Cl)c(Cl)c1Cl`?
Answer: T/C (dose: 100.0 mg/kg/injection, schedule: Q04DX002 (ip), vehicle: Klucel (hydroxypropylcellulose) (HPC)): 93 % of control; T/C (dose: 200.0 mg/kg/injection, schedule: Q04DX002 (ip), vehicle: Klucel (hydroxypropylcellulose) (HPC)): 112 % of control

Question: Which results are given for `Cc1nc(N)[nH]c(=O)c1CCCNC(=O)c1ccccc1`?
Answer: T/C (dose: 100.0 mg/kg/injection, schedule: Q01DX001 (ip), vehicle: Klucel (hydroxypropylcellulose) (HPC)): 94 % of control; T/C (dose: 200.0 mg/kg/injection, schedule: Q01DX001 (ip), vehicle: Klucel (hydroxypropylcellulose) (HPC)): 91 % of control; T/C (dose: 400.0 mg/kg/injection, schedule: Q01DX001 (ip), vehicle: Klucel (hydroxypropylcellulose) (HPC)): 87 % of control

Question: With `NC(=S)c1ccc(N)cc1` as the compound, how does the T/C (dose: 12.5 mg/kg/injection, schedule: Q04DX003 (ip), vehicle: saline) read?
Answer: 105 % of control

Question: And the T/C (dose: 25.0 mg/kg/injection, schedule: Q04DX003 (ip), vehicle: saline)?
Answer: 103 % of control

Question: And the T/C (dose: 50.0 mg/kg/injection, schedule: Q04DX003 (ip), vehicle: saline)?
Answer: 97 % of control and 102 % of control

Question: And the T/C (dose: 75.0 mg/kg/injection, schedule: Q04DX003 (ip), vehicle: saline)?
Answer: 106 % of control

Question: What about the T/C (dose: 115.0 mg/kg/injection, schedule: Q04DX003 (ip), vehicle: saline) of the same compound?
Answer: 97 % of control

Question: Which results are given for `OC(c1ccccc1)c1cccc(Br)c1` (centres undefined)?
Answer: T/C (dose: 100.0 mg/kg/injection, schedule: Q01DX009 (ip), vehicle: acetone): 104 % of control; T/C (dose: 100.0 mg/kg/injection, schedule: Q04DX003 (ip), vehicle: saline): 96 % of control; T/C (dose: 200.0 mg/kg/injection, schedule: Q01DX009 (ip), vehicle: acetone): 107 % of control; T/C (dose: 200.0 mg/kg/injection, schedule: Q04DX003 (ip), vehicle: saline): 105 % of control; T/C (dose: 400.0 mg/kg/injection, schedule: Q01DX009 (ip), vehicle: acetone): 100 % of control; T/C (dose: 400.0 mg/kg/injection, schedule: Q04DX003 (ip), vehicle: saline): 89 % of control

Question: With `CCCCCCCCCCCCC1c2ccccc2-c2ccccc21` as the compound, how does the T/C [7] read?
Answer: 95 % of control

Question: What about the T/C [8] of the same compound?
Answer: 98 % of control

Question: And the T/C [9]?
Answer: 107 % of control

Question: Which T/C (dose: 18.7 mg/kg/injection, schedule: Q01DX001 (ip), vehicle: saline) does the source give for `CCC1(O)C(=O)OCc2c1ccn(C)c2=O` (centres undefined) here?
Answer: 113 % of control

Question: And the T/C (dose: 37.5 mg/kg/injection, schedule: Q01DX001 (ip), vehicle: saline)?
Answer: 105 % of control

Question: What about the T/C [10] of the same compound?
Answer: 102 % of control

Question: What about the T/C (dose: 150.0 mg/kg/injection, schedule: Q01DX001 (ip), vehicle: saline) of the same compound?
Answer: 102 % of control

Question: Which results are given for `CC1OC(=O)C(=O)C1(C)C` (centres undefined)?
Answer: T/C (dose: 32.0 mg/kg/injection, schedule: Q01DX001 (ip), vehicle: carboxymethylcellulose (CMC)): 100 % of control; T/C (dose: 62.5 mg/kg/injection, schedule: Q01DX001 (ip), vehicle: carboxymethylcellulose (CMC)): 102 % of control; T/C (dose: 125.0 mg/kg/injection, schedule: Q01DX001 (ip), vehicle: carboxymethylcellulose (CMC)): 93 % of control; T/C (dose: 250.0 mg/kg/injection, schedule: Q01DX001 (ip), vehicle: carboxymethylcellulose (CMC)): 100 % of control; T/C (dose: 500.0 mg/kg/injection, schedule: Q01DX001 (ip), vehicle: carboxymethylcellulose (CMC)): 107 % of control

Question: How did the T/C (dose: 25.0 mg/kg/injection, schedule: Q01DX009 (ip), vehicle: water) turn out when `O=C(O)CNC1CSSC1` was run?
Answer: 106 % of control

Question: And the T/C (dose: 50.0 mg/kg/injection, schedule: Q01DX009 (ip), vehicle: water)?
Answer: 106 % of control

Question: Which T/C (dose: 5.0 mg/kg/injection, schedule: Q01DX001 (ip), vehicle: saline) does the source give for `CC[N+]1(C2CCCCC2)CCCCC1` here?
Answer: 101 % of control

Question: What about the T/C (dose: 10.0 mg/kg/injection, schedule: Q01DX001 (ip), vehicle: saline) of the same compound?
Answer: 103 % of control

Question: And the T/C (dose: 20.0 mg/kg/injection, schedule: Q01DX001 (ip), vehicle: saline)?
Answer: 100 % of control

Question: What about the T/C (dose: 40.0 mg/kg/injection, schedule: Q01DX001 (ip), vehicle: saline) of the same compound?
Answer: 91 % of control

Question: What about the T/C [10] of the same compound?
Answer: 96 % of control

Question: With `COc1ccc(CC(=O)c2ccccc2)cc1` as the compound, how does the T/C (dose: 100.0 mg/kg/injection, schedule: Q04DX002 (ip), vehicle: saline) read?
Answer: 92 % of control

Question: And the T/C (dose: 200.0 mg/kg/injection, schedule: Q04DX002 (ip), vehicle: saline)?
Answer: 95 % of control

Question: What about the T/C (dose: 400.0 mg/kg/injection, schedule: Q04DX002 (ip), vehicle: saline) of the same compound?
Answer: 104 % of control

Question: How did the T/C (dose: 25.0 mg/kg/injection, schedule: Q04DX002 (ip), vehicle: saline with Tween-80) turn out when `N#CC(c1cccnc1)N1CCOCC1` (centres undefined) was run?
Answer: 103 % of control

Question: What about the T/C (dose: 50.0 mg/kg/injection, schedule: Q04DX002 (ip), vehicle: saline with Tween-80) of the same compound?
Answer: 100 % of control

Question: And the T/C (dose: 100.0 mg/kg/injection, schedule: Q04DX002 (ip), vehicle: saline with Tween-80)?
Answer: 96 % of control

Question: What does the source list for `CN(C)N=Nc1c(Cl)cc(Cl)cc1C(N)=O`?
Answer: T/C (dose: 100.0 mg/kg/injection, schedule: Q01DX001 (ip), vehicle: saline with Tween-80): 108 % of control; T/C [5]: 111 % of control; T/C (dose: 100.0 mg/kg/injection, schedule: Q04DX003 (ip), vehicle: saline with Tween-80): 106 % of control; T/C (dose: 133.0 mg/kg/injection, schedule: Q01DX009 (ip), vehicle: saline with Tween-80): 123 % of control; T/C (dose: 200.0 mg/kg/injection, schedule: Q01DX001 (ip), vehicle: saline with Tween-80): 111 % of control; T/C [6]: 165 % of control; T/C [1]: 115 % of control; T/C (dose: 200.0 mg/kg/injection, schedule: Q04DX003 (ip), vehicle: saline with Tween-80): 110 % of control; T/C (dose: 300.0 mg/kg/injection, schedule: Q01DX009 (ip), vehicle: saline with Tween-80): 150 % of control; T/C (dose: 300.0 mg/kg/injection, schedule: Q01DX009 (ip), vehicle: saline): 100 % of control; T/C (dose: 400.0 mg/kg/injection, schedule: Q01DX001 (ip), vehicle: saline with Tween-80): 117 % of control

Question: Which T/C [7] does the source give for `CCOC(=O)C(C(=O)OCC)C(=O)OCC` here?
Answer: 102 % of control

Question: And the T/C [8]?
Answer: 102 % of control

Question: What about the T/C [9] of the same compound?
Answer: 105 % of control
